Test results: PubChem BioAssay AID248 (DTP/NCI, 2004)
Values joined by “and” are separate entries in the source; they are usually repeats but may differ in a detail not shown here. Identical values can stand only once. Inconclusive results and toxic doses are left out. No stated cut-off is given here; in the data, active means T/C of 150% or more; inactive means T/C below 125%.

Test system: L1210 leukemia ip in BDF1 mice, survival T/C
Experiment: NCI In Vivo Anticancer Drug Screen. Data for tumor model L1210 Leukemia (intraperitoneal) in B6D2F1 (BDF1) mice
Settings: endpoint: mean survival time, higher = longer survival
In short: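 Tumor cells were implanted, animals were treated, and survival was followed. The result divides the treated measurement by the vehicle-control measurement.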

[1] = dose: 100.0 mg/kg/injection, schedule: Q01DX009 (ip), vehicle: Klucel (hydroxypropylcellulose) (HPC)
[2] = dose: 100.0 mg/kg/injection, schedule: Q04DX003 (ip), vehicle: Klucel (hydroxypropylcellulose) (HPC)
[3] = dose: 200.0 mg/kg/injection, schedule: Q01DX009 (ip), vehicle: Klucel (hydroxypropylcellulose) (HPC)
[4] = dose: 200.0 mg/kg/injection, schedule: Q04DX003 (ip), vehicle: Klucel (hydroxypropylcellulose) (HPC)
[5] = dose: 400.0 mg/kg/injection, schedule: Q01DX009 (ip), vehicle: Klucel (hydroxypropylcellulose) (HPC)
[6] = dose: 400.0 mg/kg/injection, schedule: Q04DX003 (ip), vehicle: Klucel (hydroxypropylcellulose) (HPC)
[7] = dose: 100.0 mg/kg/injection, schedule: Q04DX002 (ip), vehicle: Klucel (hydroxypropylcellulose) (HPC)
[8] = dose: 200.0 mg/kg/injection, schedule: Q04DX002 (ip), vehicle: Klucel (hydroxypropylcellulose) (HPC)
[9] = dose: 400.0 mg/kg/injection, schedule: Q04DX002 (ip), vehicle: Klucel (hydroxypropylcellulose) (HPC)
[10] = dose: 50.0 mg/kg/injection, schedule: Q01DX009 (ip), vehicle: Klucel (hydroxypropylcellulose) (HPC)
[11] = dose: 100.0 mg/kg/injection, schedule: Q01DX001 (ip), vehicle: saline
[12] = dose: 200.0 mg/kg/injection, schedule: Q01DX001 (ip), vehicle: saline
[13] = dose: 400.0 mg/kg/injection, schedule: Q01DX001 (ip), vehicle: saline
[14] = dose: 100.0 mg/kg/injection, schedule: Q04DX002 (ip), vehicle: saline
[15] = dose: 200.0 mg/kg/injection, schedule: Q04DX002 (ip), vehicle: saline
[16] = dose: 400.0 mg/kg/injection, schedule: Q04DX002 (ip), vehicle: saline

Measured: T/C

O=c1[nH]nnc2c1ncn2C1OC(CO)C(O)C1O (stereo not given)
inactive: dose: 100.0 mg/kg/injection, schedule: Q01DX005 (ip), vehicle: saline 102 % of control | dose: 200.0 mg/kg/injection, schedule: Q01DX005 (ip), vehicle: saline 102 % of control

N#CCCn1cnc2c(=S)nc[nH]c21
inactive: dose: 2.0 mg/kg/injection, schedule: Q01DX Z (ip), vehicle: other 97 % of control | dose: 4.0 mg/kg/injection, schedule: Q01DX Z (ip), vehicle: other 97 % of control and 100 % of control | dose: 8.0 mg/kg/injection, schedule: Q01DX Z (ip), vehicle: other 100 % of control and 106 % of control | dose: 16.0 mg/kg/injection, schedule: Q01DX Z (ip), vehicle: other 101 % of control and 102 % of control | dose: 32.0 mg/kg/injection, schedule: Q01DX Z (ip), vehicle: other 96 % of control and 98 % of control

N#Cc1ccc[nH]1
inactive: dose: 100.0 mg/kg/injection, schedule: Q01DX001 (sc), vehicle: carboxymethylcellulose (CMC) 121 % of control | dose: 177.0 mg/kg/injection, schedule: Q01DX001 (ip), vehicle: carboxymethylcellulose (CMC) 108 % of control | dose: 200.0 mg/kg/injection, schedule: Q01DX001 (sc), vehicle: carboxymethylcellulose (CMC) 110 % of control | dose: 266.0 mg/kg/injection, schedule: Q01DX001 (ip), vehicle: carboxymethylcellulose (CMC) 96 % of control | dose: 400.0 mg/kg/injection, schedule: Q01DX001 (ip), vehicle: carboxymethylcellulose (CMC) 102 % of control

O=C(CSc1cc(Cl)c(Cl)cc1Cl)Nc1ccc(Cl)cc1Cl
inactive: dose: 100.0 mg/kg/injection, schedule: Q01DX001 (ip), vehicle: saline with Tween-80 87 % of control | dose: 200.0 mg/kg/injection, schedule: Q01DX001 (ip), vehicle: saline with Tween-80 93 % of control | dose: 400.0 mg/kg/injection, schedule: Q01DX001 (ip), vehicle: saline with Tween-80 93 % of control

CCCCCCCCC(=O)Nc1ccc(O)cc1
inactive: dose: 100.0 mg/kg/injection, schedule: Q01DX009 (ip), vehicle: gum acacia 97 % of control | dose: 100.0 mg/kg/injection, schedule: Q04DX003 (ip), vehicle: gum acacia 104 % of control | dose: 200.0 mg/kg/injection, schedule: Q01DX009 (ip), vehicle: gum acacia 105 % of control | dose: 200.0 mg/kg/injection, schedule: Q04DX003 (ip), vehicle: gum acacia 88 % of control | dose: 400.0 mg/kg/injection, schedule: Q01DX009 (ip), vehicle: gum acacia 112 % of control | dose: 400.0 mg/kg/injection, schedule: Q04DX003 (ip), vehicle: gum acacia 102 % of control

O=C(O)CC(c1ccccc1)c1ccccc1
inactive: [1] 98 % of control | [2] 94 % of control | [3] 97 % of control | [4] 107 % of control | [5] 109 % of control | [6] 107 % of control

NC(=O)C(=O)NCCCCN1CC1
inactive: dose: 12.5 mg/kg/injection, schedule: Q04DX003 (ip), vehicle: Klucel (hydroxypropylcellulose) (HPC) 97 % of control | dose: 25.0 mg/kg/injection, schedule: Q04DX003 (ip), vehicle: Klucel (hydroxypropylcellulose) (HPC) 97 % of control | dose: 50.0 mg/kg/injection, schedule: Q04DX003 (ip), vehicle: Klucel (hydroxypropylcellulose) (HPC) 102 % of control | [2] 114 % of control

O=C(O)C1C2OC(C(Cl)C2Cl)C1C(=O)O (stereo not given)
inactive: [7] 98 % of control | [8] 103 % of control | [9] 95 % of control

O=C1c2ccccc2C(c2ccccc2)(N(CCCl)CCCl)N1C1CCCCC1 (stereo not given)
inactive: [2] 103 % of control | [4] 102 % of control | [6] 97 % of control

COC(=O)c1cc(=O)c2cccc(C(=O)O)c2[nH]1
inactive: [10] 109 % of control | [1] 98 % of control | [3] 102 % of control

COC(=O)c1c[nH]c2ccccc2c1=O
inactive: [1] 106 % of control | [2] 96 % of control | [3] 95 % of control | [4] 107 % of control | [5] 108 % of control | [6] 91 % of control

COC1OC(COC(c2ccccc2)(c2ccccc2)c2ccccc2)C2OC12 (stereo not given)
inactive: [11] 94 % of control | [12] 103 % of control | [13] 97 % of control

CC(=O)Nc1ccc(S(=O)(=O)c2ccc(NC(C)=O)cc2)cc1
inactive: [10] 103 % of control | [1] 93 % of control | [3] 97 % of control

CC1(C)CC(=O)C=C(NCc2ccccc2)C1
inactive: dose: 50.0 mg/kg/injection, schedule: Q01DX009 (ip), vehicle: acetone 96 % of control | dose: 100.0 mg/kg/injection, schedule: Q01DX009 (ip), vehicle: acetone 95 % of control | dose: 200.0 mg/kg/injection, schedule: Q01DX009 (ip), vehicle: acetone 101 % of control

O=C(CSCCN1CCCCC1)N1c2ccccc2Sc2ccccc21
inactive: dose: 10.0 mg/kg/injection, schedule: Q01DX009 (ip), vehicle: saline 102 % of control | dose: 20.0 mg/kg/injection, schedule: Q01DX009 (ip), vehicle: saline 100 % of control | dose: 40.0 mg/kg/injection, schedule: Q01DX009 (ip), vehicle: saline 96 % of control

COc1ccc(/C=C2\CN(CCCC(=O)O)C(=O)C2=O)cc1
inactive: [11] 103 % of control | dose: 100.0 mg/kg/injection, schedule: Q04DX003 (ip), vehicle: saline 100 % of control | [12] 98 % of control | dose: 200.0 mg/kg/injection, schedule: Q04DX003 (ip), vehicle: saline 100 % of control | [13] 100 % of control | dose: 400.0 mg/kg/injection, schedule: Q04DX003 (ip), vehicle: saline 100 % of control

Clc1cccc(NC(c2ccccc2)=[N+]2CCCCC2)c1
inactive: [7] 95 % of control | [8] 106 % of control | [9] 113 % of control

CCCC(=O)N1CCCCC1
inactive: [7] 88 % of control

CC(=O)NCC(O)C(O)C(O)C(O)CO (stereo not given)
inactive: [14] 98 % of control | [15] 92 % of control | [16] 103 % of control

CC(=O)OC1CCC2(C)C(CCC3C2CCC2(C)C(C(C)=O)CCC32)C1 (stereo not given)
inactive: dose: 100.0 mg/kg/injection, schedule: Q01DX009 (sc), vehicle: steriod suspending solution 95 % of control | dose: 200.0 mg/kg/injection, schedule: Q01DX009 (sc), vehicle: steriod suspending solution 95 % of control | dose: 400.0 mg/kg/injection, schedule: Q01DX009 (sc), vehicle: steriod suspending solution 90 % of control

CCOCCOCCOCCOc1ccc2c(c1)OCO2
inactive: [14] 95 % of control | [15] 88 % of control | [16] 107 % of control

N#CS
inactive: dose: 50.0 mg/kg/injection, schedule: Q01DX009 (ip), vehicle: saline 102 % of control | dose: 100.0 mg/kg/injection, schedule: Q01DX009 (ip), vehicle: saline 95 % of control | dose: 200.0 mg/kg/injection, schedule: Q01DX009 (ip), vehicle: saline 98 % of control

O=C1CCSc2c1ccc1ccccc21
inactive: [11] 87 % of control

COC(=O)/C(C#N)=C/c1c[nH]c2ccccc12
inactive: dose: 100.0 mg/kg/injection, schedule: Q01DX009 (ip), vehicle: saline with Tween-80 101 % of control | dose: 100.0 mg/kg/injection, schedule: Q04DX003 (ip), vehicle: saline with Tween-80 101 % of control | dose: 200.0 mg/kg/injection, schedule: Q01DX009 (ip), vehicle: saline with Tween-80 95 % of control | dose: 200.0 mg/kg/injection, schedule: Q04DX003 (ip), vehicle: saline with Tween-80 93 % of control | dose: 400.0 mg/kg/injection, schedule: Q01DX009 (ip), vehicle: saline with Tween-80 100 % of control | dose: 400.0 mg/kg/injection, schedule: Q04DX003 (ip), vehicle: saline with Tween-80 98 % of control

CC(=O)C(C(C)=O)c1ccccc1.CC(=O)C(C(C)=O)c1ccccc1.[Ni]
inactive: dose: 6.0 mg/kg/injection, schedule: Q01DX009 (ip), vehicle: saline 94 % of control | dose: 12.0 mg/kg/injection, schedule: Q01DX009 (ip), vehicle: saline 94 % of control | dose: 25.0 mg/kg/injection, schedule: Q01DX009 (ip), vehicle: saline 102 % of control
